The results in this text go back to patent US12338220B2, “Antiviral pyrazolopiridinone compounds” (Novartis AG, priority 2019, dated 2025).

For orientation: EC50 means the concentration needed to bring the measured effect to its halfway point. One may read the IC50 as the concentration at which inhibition is half-maximal.

Where two headings read alike, the source gives them in different places.

Test [1] has as its system CMV. Put plainly: microbe, parasite or virus in culture. The class given is cell-based.
The test system of test [2] is KOS strain of HSV-1 virus. Put plainly: HSV-1 qPCR assay. The conditions noted are these: Human alphaherpesvirus 1, 24 h.
Test [3] concerns the target CMV-polymerase (Human cytomegalovirus (strain AD169) (HHV-5) (Human herpesvirus 5), UniProt P08546). Put plainly: biochemical.
For test [4], the system named is VZV Ellen strain. Put plainly: VZV qPCR assay. The conditions noted are these: Human alphaherpesvirus 3, MRC5, 48 h, read-out: Cellular activity against VZV (EC50). On the technique in general: Quantitative PCR measures a nucleic acid by following its amplification.
For test [5], the target named is HSV-polymerase (Human herpesvirus 1 (strain 17) (HHV-1) (Human herpes simplex virus 1), UniProt P04293). Description: biochemical.
For test [6], the system named is EBV (SNU-719 cells latently infected). Put plainly: EBV qPCR assay. To be noted: human gammaherpesvirus 4, 72 h, read-out: Cellular activity against EBV (EC50).
Test [7] deals with HCMV-Rluc virus (AD169 pp28-hRluc rUL131). Put plainly: CMV Luciferase Assay of Compounds 243-262 in ARPE-19 cells. The class given is cell-based. To be noted: Human betaherpesvirus 5, AD169, ARPE-19, 72 h, read-out: CMV-Luc Cellular EC50 in ARPE-19. The protocol:
CMV Luciferase Assay of Compounds 243-262.
Compounds 243-262 were tested in a luminescence assay as follows.
ARPE-19 cells were maintained in growth medium (DMEM/F12 Glutamax+10 fetal bovine serum (FBS)+PenStrep) and, before reaching full confluence, were transferred to a centrifuge tube and spun for 5 minutes at 1000 rpm. The cells were resuspended in assay medium (DMEM/F12 Glutamax+2% FBS+PenStrep) and counted. Cell density was adjusted to one million cells per milliliter and infected with HCMV-Rluc virus (AD169 pp28-hRluc rUL131; MOI 0.6) in a 50 ml conical tube for 2 hours while shaking. After dilution of the infectious suspension ten-fold (to 100,000 cells per milliliter), 8000 cells are directly plated in 384-well plates pre-spotted with the compound to be tested. The cells were incubated for 72 hours at 37 degrees Celsius. Cells were then placed at room temperature and allowed to equilibrate for 20 minutes before addition of the Renilla-Glo (Promega) reagent. After a 10-minute incubation at room temperature, luminescence was measured on a microplate reader.

[8] abbreviates: Human betaherpesvirus 5, 72 h, read-out: CMV-Luc Cellular EC50, NN-NHDF cells, MOI 1, 72 hrs.
[9] abbreviates: Human betaherpesvirus 5, read-out: Cellular activity against CMV (EC50), Table 18.
Where [10] appears, read: read-out: Cellular activity against HSV-1 (EC50), NN-NHDF cells, MOI 0.01, 24 hrs, qPCR.
Where [11] appears, read: read-out: CMV-polymerase Biochemical IC50.
[12] abbreviates: read-out: Cellular activity against HSV-1 (EC50).

Take `Cn1nc(C(=O)NCc2ccc(Cl)cc2)c2c1C(=O)N(CC1(S(=O)(=O)C(C)(C)C(O)CN)CC1)CC2` (single isomer, unassigned) [Example 200, (R)- or (S)-6-((1-((4-Amino-3-hydroxy-2-methylbutan-2-yl)sulfonyl)cyclopropyl)methyl)-N-(4-chlorobenzyl)-1-methyl-7-oxo-4,5,6,7-tetrahydro-1H-pyrazolo[3,4-c]pyridine-3-carboxamide]: the EC50 in test [1] (setting [8]) came out at 5 nM; in test [1] (setting [9]), 5 nM; in test [2] (setting [10]), 16 nM.
For `Cn1nc(C(=O)NCc2ccc(C#N)cc2)c2c1C(=O)N(CC1(S(=O)(=O)C3CC3)CC1)CC2` [Example 3, N-(4-cyanobenzyl)-6-((1-(cyclopropylsulfonyl)cyclopropyl)methyl)-1-methyl-7-oxo-4,5,6,7-tetrahydro-1H-pyrazolo[3,4-c]pyridine-3-carboxamide], the IC50 in test [3] (setting [11]) was determined as 2 nM. The EC50 amounted to 39 nM in test [1] (setting [8]), 39 nM in test [1] (setting [9]), 11 nM in test [4] and 33 nM in test [2] (setting [12]).
Regarding `Cn1nc(C(=O)NCc2ccc(Cl)cc2)c2c1C(=O)N(CC1(S(=O)(=O)C3CC3)CC1)CC2` [Example 4, N-(4-Chlorobenzyl)-6-((1-(cyclopropylsulfonyl)cyclopropyl)methyl)-1-methyl-7-oxo-4,5,6,7-tetrahydro-1H-pyrazolo[3,4-c]pyridine-3-carboxamide], the IC50 in test [3] (setting [11]) was determined as 2 nM. For the same compound, the EC50 in test [1] (setting [8]) was 23 nM; in test [1] (setting [9]), 23 nM; in test [4], 8 nM; in test [2] (setting [10]), 64 nM.
As for `Cn1nc(C(=O)NCc2ccc(C#N)cc2)c2c1C(=O)N(CC1(S(=O)(=O)C(C)(C)COCCN)CC1)CC2` [Example 92, 6-((1-((1-(2-Aminoethoxy)-2-methylpropan-2-yl)sulfonyl)cyclopropyl)methyl)-N-(4-cyanobenzyl)-1-methyl-7-oxo-4,5,6,7-tetrahydro-1H-pyrazolo[3,4-c]pyridine-3-carboxamide], the IC50 was 1 nM in test [3] (setting [11]) and 30 nM in test [5]. Also, the EC50 in test [1] (setting [8]) was found to be 12 nM; in test [1] (setting [9]) it was 12 nM; in test [2] (setting [10]), 30 nM.
In test [3] (CMV-polymerase Biochemical IC50), `Cn1nc(C(=O)NCc2ccc(Cl)cc2)c2c1C(=O)N(CC1(S(=O)(=O)C(C)(CO)CO)CC1)CC2` [Example 175, N-(4-chlorobenzyl)-6-((1-((1,3-dihydroxy-2-methylpropan-2-yl)sulfonyl)cyclopropyl)methyl)-1-methyl-7-oxo-4,5,6,7-tetrahydro-1H-pyrazolo[3,4-c]pyridine-3-carboxamide] gave an IC50 of 3 nM. The EC50 turned out to be 26 nM in test [1] (setting [8]); 26 nM in test [1] (setting [9]); 34 nM in test [4]; 8 nM in test [6]; 58 nM in test [2] (setting [10]).
In the case of `Cn1nc(C(=O)NCc2ccc(C#N)cc2)c2c1C(=O)N(CC1(S(=O)(=O)C(C)(C)[C@H](O)CN)CC1)CC2` [Example 198, (R)-6-((1-((4-amino-3-hydroxy-2-methylbutan-2-yl)sulfonyl)cyclopropyl)methyl)-N-(4-cyanobenzyl)-1-methyl-7-oxo-4,5,6,7-tetrahydro-1H-pyrazolo[3,4-c]pyridine-3-carboxamide], the EC50 in test [1] (setting [8]) came out at 18 nM; in test [1] (setting [9]), 22 nM; in test [4], 39 nM; in test [6], 4 nM; in test [2] (setting [12]), 50 nM.
For `CC1(S(=O)(=O)C2(CN3CCc4c(C(=O)NCc5ccc(C#N)cc5)nn(CCO)c4C3=O)CC2)CC1` [Example 217, N-(4-Cyanobenzyl)-1-(2-hydroxyethyl)-6-((1-((1-methylcyclopropyl)sulfonyl)cyclopropyl)methyl)-7-oxo-4,5,6,7-tetrahydro-1H-pyrazolo[3,4-c]pyridine-3-carboxamide], in test [3] (setting [11]), the IC50 is 1 nM. The values for the EC50 in test [1] (setting [8]), in test [1] (setting [9]) and in test [2] (setting [10]) were 29 nM, 29 nM and 36 nM, respectively.
Turning to `CC(C)(CO)S(=O)(=O)C1(CN2CCc3c(C(=O)NCc4ccc(Cl)cc4)nn(CCO)c3C2=O)CC1` [Example 221, N-(4-chlorobenzyl)-6-((1-((1-hydroxy-2-methylpropan-2-yl)sulfonyl)cyclopropyl)methyl)-1-(2-hydroxyethyl)-7-oxo-4,5,6,7-tetrahydro-1H-pyrazolo[3,4-c]pyridine-3-carboxamide], the half-inhibitory concentration (IC50) in test [3] (setting [11]) was 1 nM. The EC50 turned out to be 17 nM in test [1] (setting [8]), 17 nM in test [1] (setting [9]) and 10 nM in test [2] (setting [10]).
With `CN(C)C(=O)CCNS(=O)(=O)C1(CN2CCc3c(C(=O)NCc4ccc(C#N)cc4)nn(C)c3C2=O)CC1` [Example 254, N-(4-cyanobenzyl)-6-((1-(N-(3-(dimethylamino)-3-oxopropyl)sulfamoyl)cyclopropyl)methyl)-1-methyl-7-oxo-4,5,6,7-tetrahydro-1H-pyrazolo[3,4-c]pyridine-3-carboxamide], in test [7], the EC50 stood at 1000 nM.
Regarding `Cn1nc(C(=O)NCc2ccc(C#N)cc2)c2c1C(=O)N(CC1(S(=O)(=O)N3C[C@H](O)[C@@H](O)C3)CC1)CC2` [Example 255, N-(4-cyanobenzyl)-6-((1-(((3S,4S)-3,4-dihydroxypyrrolidin-1-yl)sulfonyl)cyclopropyl)methyl)-1-methyl-7-oxo-4,5,6,7-tetrahydro-1H-pyrazolo[3,4-c]pyridine-3-carboxamide], in test [7], the EC50 is 313 nM.
As to `Cn1nc(C(=O)NCc2ccc(C#N)cc2)c2c1C(=O)N(CC1(S(=O)(=O)NC3(c4cccnn4)CC3)CC1)CC2` [Example 256, N-(4-cyanobenzyl)-1-methyl-7-oxo-6-((1-(N-(1-(pyridazin-3-yl)cyclopropyl)sulfamoyl)cyclopropyl)methyl)-4,5,6,7-tetrahydro-1H-pyrazolo[3,4-c]pyridine-3-carboxamide], the EC50 in test [7] was found to be 10000 nM.
For the compound `Cn1nc(C(=O)NCc2ccc(C#N)cc2)c2c1C(=O)N(CC1(S(=O)(=O)NC(C)(CO)CO)CC1)CC2` [Example 257, N-(4-cyanobenzyl)-6-((1-(N-(1,3-dihydroxy-2-methylpropan-2-yl)sulfamoyl)cyclopropyl)methyl)-1-methyl-7-oxo-4,5,6,7-tetrahydro-1H-pyrazolo[3,4-c]pyridine-3-carboxamide], in test [7], the EC50 stood at 358 nM.
Take `Cn1nc(C(=O)NCc2ccc(C#N)cc2)c2c1C(=O)N(CC1(S(=O)(=O)NCc3ncccn3)CC1)CC2` [Example 258, N-(4-cyanobenzyl)-1-methyl-7-oxo-6-((1-(N-(pyrimidin-2-ylmethyl)sulfamoyl)cyclopropyl)methyl)-4,5,6,7-tetrahydro-1H-pyrazolo[3,4-c]pyridine-3-carboxamide]: in test [7], the EC50 came to 688 nM.
`CC(NS(=O)(=O)C1(CN2CCc3c(C(=O)NCc4ccc(C#N)cc4)nn(C)c3C2=O)CC1)c1cnccn1` (stereo not shown) [Example 259, N-(4-cyanobenzyl)-1-methyl-7-oxo-6-((1-(N-(1-(pyrazin-2-yl)ethyl)sulfamoyl)cyclopropyl)methyl)-4,5,6,7-tetrahydro-1H-pyrazolo[3,4-c]pyridine-3-carboxamide]: the EC50 in test [7] came out at 714 nM.
As to `Cn1nc(C(=O)NCc2ccc(C#N)cc2)c2c1C(=O)N(CC1(S(=O)(=O)NCc3cnccn3)CC1)CC2` [Example 260, N-(4-cyanobenzyl)-1-methyl-7-oxo-6-((1-(N-(pyrazin-2-ylmethyl)sulfamoyl)cyclopropyl)methyl)-4,5,6,7-tetrahydro-1H-pyrazolo[3,4-c]pyridine-3-carboxamide], the EC50 in test [7] is 278 nM.
Same read-out and setting: as for `Cn1nc(C(=O)NCc2ccc(C#N)cc2)c2c1C(=O)N(CC1(S(=O)(=O)NC(CO)(CO)CO)CC1)CC2` [Example 261, N-(4-cyanobenzyl)-6-((1-(N-(1,3-dihydroxy-2-(hydroxymethyl)propan-2-yl)sulfamoyl)cyclopropyl)methyl)-1-methyl-7-oxo-4,5,6,7-tetrahydro-1H-pyrazolo[3,4-c]pyridine-3-carboxamide], the figure is 2580 nM.
Regarding `Cn1nc(C(=O)NCc2ccc(C#N)cc2)c2c1C(=O)N(CC1(S(N)(=O)=O)CC1)CC2` [Example 262, N-(4-cyanobenzyl)-1-methyl-7-oxo-6-((1-sulfamoylcyclopropyl)methyl)-4,5,6,7-tetrahydro-1H-pyrazolo[3,4-c]pyridine-3-carboxamide], the EC50 in test [7] came to 252 nM.
